Holding throughout (assay type): functional, cell-based
One experiment concerns BJ. The experiment is described as follows: Proapoptotic activity in human BJ cells by annexin V-FITC/propidium iodide staining-based capillary cytometric method.
Another experiment deals with ASPC1. As to the kind of experiment: Proapoptotic activity in human AsPC1 cells by annexin V-FITC/propidium iodide staining-based capillary cytometric method.
The subject of another experiment is NTERA-2-cl-D1. The experiment is described as follows: Proapoptotic activity in human NT2/D1 cells by annexin V-FITC/propidium iodide staining-based capillary cytometric method.
Another experiment concerns BXPC-3. As to the kind of experiment: Proapoptotic activity in human BxPC3 cells by annexin V-FITC/propidium iodide staining-based capillary cytometric method.

Each structure is given as a SMILES string.

In general, EC50 refers to the concentration that produces a half-maximal response.

Regarding `Nc1nc(-c2cccc(NC(=O)c3cc4cc(F)ccc4[nH]3)c2)c[nH]1`, the EC50 was 16 µM in the experiment on BJ, 27 µM with ASPC1, 13 µM with NTERA-2-cl-D1 and 28 µM in the experiment on BXPC-3.

For the origin of these results see ChEMBL document CHEMBL3853262 (Medchemcomm, 2016).
